Like-named read-outs stand apart in the source and are kept apart here. Peptide text beside a SMILES is read from it. * marks the point of attachment. Cbz = O=C(OCc1ccccc1)*; CH2F = FC*
What was measured:
LY18 = test: DLBCL cell line viability, CellTiter Glo, ten-point curve; type: cell-based; details: read-out: IC50 of Kinase Inhibitor in Cell Titer Glo Assay
Description: (§2) Each IC50 value is an average of at least four replicate experiments.

VAL [1] = test: as above; type: cell-based; details: read-out: IC50 of Kinase Inhibitor in Cell Titer Glo Assay
Description: as §2

DHL6 [2] = test: as above; type: cell-based; details: read-out: IC50 of Kinase Inhibitor in Cell Titer Glo Assay
Description: as §2

LY10 (OCI-LY10) = test: as above; type: cell-based; details: LY10 cell line; read-out: IC50 of Kinase Inhibitor in Cell Titer Glo Assay
Description: as §2

DHL4 = test: as above; type: cell-based; details: read-out: IC50 of Kinase Inhibitor in Cell Titer Glo Assay
Description: as §2

DHL5 = test: as above; type: cell-based; details: read-out: IC50 of Kinase Inhibitor in Cell Titer Glo Assay
Description: as §2

U2932 [3] = test: as above; type: cell-based; details: Homo sapiens, read-out: IC50 of Kinase Inhibitor in Cell Titer Glo Assay
Description: as §2

LY1 = test: as above; type: cell-based; details: read-out: IC50 of Kinase Inhibitor in Cell Titer Glo Assay
Description: as §2

DHL10 [4] = test: as above; type: cell-based; details: read-out: IC50 of Kinase Inhibitor in Cell Titer Glo Assay
Description: as §2

LY7 = test: as above; type: cell-based; details: read-out: IC50 of Kinase Inhibitor in Cell Titer Glo Assay
Description: as §2

DHL8 = test: as above; type: cell-based; details: read-out: IC50 of Kinase Inhibitor in Cell Titer Glo Assay
Description: as §2

DLCL2 = test: as above; type: cell-based; details: read-out: IC50 of Kinase Inhibitor in Cell Titer Glo Assay
Description: as §2

DB = test: as above; type: cell-based; details: Homo sapiens; DB cell line; read-out: IC50 of Kinase Inhibitor in Cell Titer Glo Assay
Description: as §2

TOLEDO [5] = test: as above; type: cell-based; details: Homo sapiens; TOLEDO cell line; read-out: IC50 of Kinase Inhibitor in Cell Titer Glo Assay
Description: as §2

RCK8 = test: as above; type: cell-based; details: Homo sapiens; RCK8 cell line; read-out: IC50 of Kinase Inhibitor in Cell Titer Glo Assay
Description: as §2

primary CLL cells = test: Apoptosis in primary CLL samples, propidium iodide/Annexin V staining and PARP cleavage; type: cell-based, human; details: co-treatment with cerdulatinib
DHL10 [6] = test: Combination synergy, Cell Titer Glo, 72 hours; type: cell-based
Protocol: (§1) Synergistic anti-tumor activity in DLBCL cell lines was determined using the Cell Titer Glo assay. Briefly, 5,000 cells were plated in 96 well plates in complete tissue culture media. […] Cells were incubated with or without drug for 72 hours in a 37° C. tissue culture incubator prior to evaluation by CellTiter Glo as per the manufacturer protocol (Promega). Synergy was evaluated by calculating combination index score, as described elsewhere (Jacquement et al, Molecular Cancer 2012) following IC50 determination using Prism software. The compounds are commercially available or are made according to synthetic methods known to those skilled in the art.
as §1, with “calculating a” for “calculating”

DHL4 (SU-DHL4) = test: Combination synergy, Cell Titer Glo, 72 hours; type: cell-based; details: Homo sapiens
Protocol: as §1
as §1, with “calculating a” for “calculating”

DHL6 [7] = test: Combination synergy, Cell Titer Glo, 72 hours; type: cell-based
Protocol: as §1
as §1, with “calculating a” for “calculating”

Lyl (OCI-Lyl) = test: Combination synergy, Cell Titer Glo, 72 hours; type: cell-based
Protocol: as §1
as §1, with “calculating a” for “calculating”

VAL [8] = test: Combination synergy, Cell Titer Glo, 72 hours; type: cell-based
Protocol: as §1
as §1, with “calculating a” for “calculating”

TOLEDO [9] = test: Combination synergy, Cell Titer Glo, 72 hours; type: cell-based; details: Homo sapiens
Protocol: as §1

U2932 [10] = test: Combination synergy, Cell Titer Glo, 72 hours; type: cell-based; details: Homo sapiens
Protocol: as §1

CLL primary cells = test: CLL cell viability with IL-4/CD40L, PI/Annexin V staining; type: cell-based, human
Protocol: Viability was assessed using (A) PI/Annexin V staining by flow cytometry. A representative plot is shown or (B) summarized (n=9) showing % of control (PI/Annexin V negative cells). […] Points below the diagonal line represent synergistic interactions, above the line are additive.
Values above the diagonal line represent additive interaction and those under the line are synergistic.

OCI-Ly18 = test: Combination synergy, Cell Titer Glo, 72 hours; type: cell-based; details: Homo sapiens, OCI-Ly18, 72 h
Protocol: as §1, with “calculating a” for “calculating”

[11] = tested on: WT BTK-transfected TMD8 cells; test: Cell count and viability of transfected TMD8 cells; type: cell-based; details: 250 nM; 7 days
Description: (§3) Cell transfection, cell count and viability assay: TMD8 cells were transfected with constructs of WT BTK or BTK^C481S mutants using kit V, Program U-13 on Amaxa Nucleofector, according to the manufacturer's protocols (Amaxa, Cologne, Germany). After transfection, the cells were co-cultured with NKTert cells in a 24-well plate for 24 hrs for recovery.

[12] = tested on: BTK^C481S-transfected TMD8 cells; test: Cell count and viability of transfected TMD8 cells; type: cell-based; details: 250 nM; 7 days
Description: as §3

Row | Structure (SMILES) | IC50 (LY10 (OCI-LY10)) [µM] | IC50 (LY18) [µM] | IC50 (VAL [1]) [µM] | IC50 (DHL6 [2]) [µM] | IC50 (DHL4) [µM] | IC50 (DHL5) [µM] | IC50 (U2932 [3]) [µM] | IC50 (LY1) [µM] | IC50 (DHL10 [4]) [µM] | IC50 (LY7) [µM] | IC50 (DHL8) [µM] | IC50 (DLCL2) [µM] | IC50 (DB) [µM] | IC50 (TOLEDO [5]) [µM] | IC50 (RCK8) [µM] | IC50 (DHL10 [6]) [µM] | IC50 (DHL4 (SU-DHL4); SU-DHL-4, 72 h, read-out: IC50) [µM] | IC50 (DHL6 [7]) [µM] | IC50 (Lyl (OCI-Lyl)) [µM] | IC50 (VAL [8]) [µM] | other results
1 | CC[C@H](Nc1ncnc2[nH]cnc12)c1nc2cccc(F)c2c(=O)n1-c1ccccc1 [Idelalisib] | 12 | 3.8 | 29 | 0.03 | 12 | 1.3 | 40 | 4.9 | 12 | 13 | 49 | 15 | 42 | ≥ 50 | ≥ 50 |  |  |  |  |  | 
2 | CC(NC(=O)C(NC(=O)OCc1ccccc1)C(C)C)C(=O)NC(CC(=O)O)C(=O)CF (stereo not drawn) [ZVAD, reference compound] (Cbz-Val-Ala-Asp-CH2F; configuration not given here) |  |  |  |  |  |  |  |  |  |  |  |  |  |  |  |  |  |  |  |  | cerdulatinib induced apoptosis on co-treatment (primary CLL cells): inhibited
3 | C[C@H](Nc1ncnc2nc[nH]c12)c1cc2cccc(Cl)c2c(=O)n1-c1ccccc1 [IPI-145] | 5.7 | 0.96 | 21 | 0.002 | 3.7 | 0.33 | 27 | 1.3 | 4.1 | 25 | 45 | 5 | ≥ 50 | 18 | ≥ 50 |  |  |  |  |  | 
4 | COc1cccc2c1C(=O)c1c(O)c3c(c(O)c1C2=O)C[C@@](O)(C(=O)CO)C[C@@H]3O[C@H]1C[C@H](N)[C@H](O)[C@H](C)O1 [Doxo, Doxorubicin] | 0.04 | 0.06 | 0.22 | 0.14 | 0.1 | 0.03 | 0.35 | 0.19 | 0.3 | 0.14 | 0.15 | 0.18 | 0.37 | 0.44 | 0.2 |  |  |  |  |  | 
5 | CC1(C)CCC(CN2CCN(c3ccc(C(=O)NS(=O)(=O)c4ccc(NCC5CCOCC5)c([N+](=O)[O-])c4)c(Oc4cnc5[nH]ccc5c4)c3)CC2)=C(c2ccc(Cl)cc2)C1 [ABT-199, 4-(4-{[2-(4-chlorophenyl)-4,4-dimethylcyclohex-1-en-1-yl]methyl}piperazin-1-yl)-N-({3-nitro-4-[(tetrahydro-2H-pyran-4-ylmethyl)amino]phenyl}-sulfonyl)-2-(1H-pyrrolo[2,3-b]pyridin-5-yloxy)benzamide, reference compound] |  |  |  |  |  |  |  |  |  |  |  |  |  |  |  | 3.7 | 1.63 | 0.023 | 0.75 | 4.3 | IC50 (DHL4 (SU-DHL4); SU-DHL-4, SU-DHL4 cell line, read-out: IC50 value): 1.63 µM; IC50 (TOLEDO [9]): 0.23 µM; IC50 (U2932 [10]; U2932, 72 h, read-out: IC50): 0.49 µM; IC50 (U2932 [10]; U2932 cell line, read-out: IC50 value): 0.49 µM; CLL cell viability (CLL primary cells; IL-4/CD40L for 6 hours, then drug for 24 hours, n=9): protected CLL cells against ABT-199 induced apoptosis; CLL cell viability (CLL primary cells; absence of IL-4/CD40L, 24 hours): significantly reduced CLL cell viability
6 | C=CC(=O)N1CCC[C@@H](n2nc(-c3ccc(Oc4ccccc4)cc3)c3c(N)ncnc32)C1 [Ibrutinib, 1-[(3R)-3-[4-Amino-3-(4-phenoxyphenyl)-1H-pyrazolo[3,4-d]pyrimidin-1-yl]piperidin-1-yl]prop-2-en-1-one, reference compound] |  |  |  |  |  |  |  |  |  |  |  |  |  |  |  | 1.89 | 3.1 | 0.31 | 0.75 | 4.56 | IC50 (OCI-Ly18): 1.24 µM; cell growth [11]: similarly inhibited; cell growth [12]: less sensitive
